ChEMBL document CHEMBL3734669, “Δ(5)-Cholenoyl-amino acids as selective and orally available antagonists of the Eph-ephrin system” (Eur J Med Chem, 2015)
pIC50: −log10 of the molar value. In brackets after ≈: the same amount, converted by molar mass.

Columns and labels:
[1] = n-octanol-water distribution coefficient, log D of the compound at pH 7.4 after 4 hrs by shake-flask method; format: physicochemical
[2] = target: T1, Nuclear receptor subfamily 1 group I member 2 (Homo sapiens, UniProt O75469); assay: Activation of human recombinant PXR up to 10 uM by alphascreen method
T1 sequence (O75469 whole entry): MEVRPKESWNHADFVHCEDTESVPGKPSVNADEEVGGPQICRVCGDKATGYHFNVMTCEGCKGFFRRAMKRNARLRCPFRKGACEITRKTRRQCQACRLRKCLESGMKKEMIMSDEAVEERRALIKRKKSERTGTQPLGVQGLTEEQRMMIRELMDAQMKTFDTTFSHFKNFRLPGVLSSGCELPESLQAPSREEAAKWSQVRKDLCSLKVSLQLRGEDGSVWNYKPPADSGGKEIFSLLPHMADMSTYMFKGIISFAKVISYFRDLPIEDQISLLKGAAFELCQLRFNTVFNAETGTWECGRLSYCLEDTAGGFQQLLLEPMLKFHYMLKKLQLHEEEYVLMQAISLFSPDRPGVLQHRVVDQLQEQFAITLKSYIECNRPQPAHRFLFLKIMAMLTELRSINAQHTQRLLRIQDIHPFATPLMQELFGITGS

[3] = Cmax in mouse at 30 mg/kg, po administered as single dose by HPLC-MS analysis; format: ADME, organism-based; design: dose 30 mg/kg, route oral; conditions: in vivo
[4] = Metabolic stability in mouse liver S9 fractions assessed as compound remaining at 1 uM after 1 hr by HPLC-ESI-MS/MS analysis in presence of NADPH regenerating system; format: ADME, subcellular, Liver S9 fraction; conditions: read-out: Stability
[5] = Kinetic solubility of the compound in NaCl solution at 25 deg C after 2 hrs by HPLC-ESI-MS/MS analysis; format: physicochemical; conditions: read-out: Kinetic_solubility
[6] = AUC (0 to t) in mouse at 30 mg/kg, po administered as single dose by HPLC-MS analysis; format: ADME, organism-based; conditions: in vivo
[7] = target: T2, Ephrin type-A receptor 6 (Homo sapiens) (UniProt Q9UF33); assay: (§1) Displacement of biotinylated ephrin-A1-Fc from EphA6 (unknown origin) preincubated for 1 hr followed by biotinylated-ephrin-A1-Fc addition measured after 4 hrs by ELISA
T2 sequence (whole entry): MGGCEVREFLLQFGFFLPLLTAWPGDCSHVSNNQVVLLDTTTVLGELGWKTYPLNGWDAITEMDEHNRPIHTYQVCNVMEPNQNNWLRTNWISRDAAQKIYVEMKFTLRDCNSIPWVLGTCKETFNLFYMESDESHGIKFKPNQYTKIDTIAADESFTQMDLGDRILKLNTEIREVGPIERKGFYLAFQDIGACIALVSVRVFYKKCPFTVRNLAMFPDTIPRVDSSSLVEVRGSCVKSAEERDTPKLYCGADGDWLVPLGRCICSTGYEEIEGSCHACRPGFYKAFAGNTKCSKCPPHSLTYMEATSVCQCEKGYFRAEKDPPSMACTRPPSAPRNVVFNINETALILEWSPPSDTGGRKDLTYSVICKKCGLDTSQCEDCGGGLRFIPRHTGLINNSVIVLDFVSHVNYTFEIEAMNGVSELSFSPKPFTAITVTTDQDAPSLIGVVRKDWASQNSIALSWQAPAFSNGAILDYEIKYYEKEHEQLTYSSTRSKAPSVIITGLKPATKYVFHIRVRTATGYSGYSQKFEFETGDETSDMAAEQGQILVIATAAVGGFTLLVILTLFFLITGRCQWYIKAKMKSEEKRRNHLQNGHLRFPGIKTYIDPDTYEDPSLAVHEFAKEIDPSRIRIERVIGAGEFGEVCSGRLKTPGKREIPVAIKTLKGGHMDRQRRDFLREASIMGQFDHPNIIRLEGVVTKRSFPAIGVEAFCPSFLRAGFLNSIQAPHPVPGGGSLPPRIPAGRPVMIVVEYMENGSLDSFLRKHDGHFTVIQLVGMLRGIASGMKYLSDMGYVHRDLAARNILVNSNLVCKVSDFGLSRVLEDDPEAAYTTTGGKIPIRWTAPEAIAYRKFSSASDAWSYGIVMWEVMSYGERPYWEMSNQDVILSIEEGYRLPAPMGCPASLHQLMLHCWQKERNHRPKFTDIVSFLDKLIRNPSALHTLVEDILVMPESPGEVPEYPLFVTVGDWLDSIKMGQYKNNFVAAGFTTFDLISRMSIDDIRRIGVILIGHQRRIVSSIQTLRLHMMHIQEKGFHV

Ephrin type-A receptor 6 = target: T3, Ephrin type-A receptor 6 (Homo sapiens, UniProt Q9UF33); assay: as §1
T3 sequence (Q9UF33 whole entry): T2 sequence (whole entry)

[8] = target: T4, Ephrin type-B receptor 4 (Homo sapiens) (UniProt P54760); assay: Displacement of biotinylated ephrin-B1-Fc from EphB4 (unknown origin) preincubated for 1 hr followed by biotinylated-ephrin-B1-Fc addition measured after 4 hrs by ELISA
T4 sequence (whole entry): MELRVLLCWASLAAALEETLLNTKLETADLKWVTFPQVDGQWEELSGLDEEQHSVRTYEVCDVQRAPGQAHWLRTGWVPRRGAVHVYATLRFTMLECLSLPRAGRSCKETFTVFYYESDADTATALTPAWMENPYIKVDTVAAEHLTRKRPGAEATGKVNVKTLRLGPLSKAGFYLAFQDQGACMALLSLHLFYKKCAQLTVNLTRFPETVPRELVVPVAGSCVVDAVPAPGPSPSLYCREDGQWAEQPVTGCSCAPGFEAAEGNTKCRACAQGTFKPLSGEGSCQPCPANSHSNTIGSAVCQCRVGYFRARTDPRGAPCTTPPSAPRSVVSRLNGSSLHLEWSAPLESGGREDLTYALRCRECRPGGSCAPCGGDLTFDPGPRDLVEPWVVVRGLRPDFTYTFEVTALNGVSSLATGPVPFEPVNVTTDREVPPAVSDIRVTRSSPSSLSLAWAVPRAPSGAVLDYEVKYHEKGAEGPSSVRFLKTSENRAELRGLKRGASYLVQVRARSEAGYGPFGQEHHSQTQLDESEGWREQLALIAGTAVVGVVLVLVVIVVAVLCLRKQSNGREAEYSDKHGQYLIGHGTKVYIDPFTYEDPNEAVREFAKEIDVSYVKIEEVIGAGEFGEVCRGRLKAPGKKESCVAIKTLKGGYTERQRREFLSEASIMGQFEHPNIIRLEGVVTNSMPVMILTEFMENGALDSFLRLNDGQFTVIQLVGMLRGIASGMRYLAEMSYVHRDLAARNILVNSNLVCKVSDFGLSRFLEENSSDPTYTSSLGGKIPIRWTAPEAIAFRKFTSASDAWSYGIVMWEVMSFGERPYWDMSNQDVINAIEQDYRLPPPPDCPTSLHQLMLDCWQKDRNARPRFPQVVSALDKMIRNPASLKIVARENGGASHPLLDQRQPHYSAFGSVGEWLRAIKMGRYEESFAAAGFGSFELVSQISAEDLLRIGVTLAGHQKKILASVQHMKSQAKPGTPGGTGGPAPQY

## C[C@H](CCC(=O)N[C@@H](Cc1c[nH]c2ccccc12)C(=O)O)[C@H]1CC[C@H]2[C@@H]3CC=C4C[C@@H](O)CC[C@]4(C)[C@H]3CC[C@]12C
[1]
  logD at 4 h: 4.01
[2]
  Activity: Not Active
[3]
  Cmax: 1400 nM
[4]
  remaining at 1 h, 1 µM: 70%
[5]
  solubility kinetic at 2 h: 31.5 µM (≈ 17.7 µg/mL)
[6]
  AUC(0-t): 573 ng·h/mL
[7]
  inhibition: Dose-dependent effect
Ephrin type-A receptor 6
  pIC50: 5.46
[8]
  inhibition: Dose-dependent effect
